Experimental data taken from patent US11958868B2, “Methods of using metal complexes to promote wound healing” (University of Macau, priority 2022, dated 2024).

Assays:
[1] = system: HIF-1α activation of the HRE-driven reporter; experiment: Dual luciferase reporter assay (HRE-driven luciferase activity); format: cell-based, Human; conditions: HEK293 cells, 8 h
Description: A library of cyclometalated Ir(III)/Rh(III) metal complexes 1-14 (as racemates) with diverse structures were selected for initial screening, in order to identify favorable substructures for the design of the next round of complexes (FIG. 1a). In cells, HIF-1α moves into the nucleus and binds to the hypoxia-response element (HRE) in the promoters of transactivated genes. In this study, the dual luciferase reporter assay (DLR) was performed to monitor the variations of HRE-driven luciferase activity induced by the complexes (FIG. 1f). Human embryonic kidney HEK293 cells were treated with complexes (10 μM) for 8 h, and the HRE-driven luciferase activity of the cell lysates was determined. Complexes that inhibit the interaction between VHL and HIF-1α would be expected to increase the level of HRE-driven luciferase activity in the cell lysates.
HEK293 cells were seeded in six well plates 24 h before transfection. HRE-luciferase plasmid (4 μg) and pRL-TK plasmid (4 μg) and TurboFect reagent (6 μL) were mixed together in serum-free DMEM medium and the resulting solution was incubated for 20 min at room temperature. The mixture was the added dropwise to the HEK293 cells in the wells. The cells were incubated for 32 h at 37° C. in a CO2 incubator before use.
The inhibition of HIF-1α activity was assayed by a reporter assay using a dual luciferase reporter assay system (Promega, Madison, WI, USA). Transiently transfected cells were treated with complexes or P1 for 8 h before measurement. Luciferase activity was integrated over a 10 second period and measured using a spectrophotometer (Spectra-max M5, Molecular Devices, USA). The results were standardization with the activity of Renilla luciferase. All data are expressed as means±SD.

[2] = target: T1, human recombinant VHL:ElonginB:ElonginC (VBC) complex (Homo sapiens, UniProt P40337); experiment: Isothermal titration calorimetry (ITC); format: binding
T1 construct: made in house
Description: HEK293 cells were treated with vehicle DMSO (1% for 2 h), 1a (0.3, 1, 3, 6 and 9 μM for 2 h), VH298 (100 μM for 2 h), MG132 (20 μM for 3 h), or FG-4592 (100 μM for 2 h) before lysis. Cell lysates were collected and incubated with VHL antibody overnight at 4° C. The proteins were immunoprecipitated using agarose beads. The levels of hydroxy-HIF-1α co-precipitated with VHL were detected using a hydroxy-HIF-1α antibody, and then visualized using ECL Western Blotting Detection Reagent (GE Healthcare). (B) Cellular thermal shift assays to monitor cellular target engagement of VHL and HIF-1α. HEK293 cell lysates were treated with 1a (3 μM) at room temperature for 30 min and then heated at different temperature ranging from 48° C. to 68° C. for 5 min. The protein samples were collected and detected by Western blotting using either VHL or PHD2 antibodies. (C) Fluorescence-based protein thermal shift assay of VBC in the presence or absence of VH298 (100 μM) and complex 1a (100 μM). (D) ITC titration of complex 1a (300 μM) into recombinant VHL protein (30 μM). ITC experiments were carried in a MicroCal PEAQ-ITC Isothermal Titration Calorimeter (Malvern Panalytical). […] (F) Biolayer interferometry (BLI) kinetic analysis of the interaction between complex 1a and VBC. VBC was surface-immobilized to Ni-NTA biosensors. […] Data are expressed as means±SD (n=3 independent experiments for figures a and b, samples for figures c and e), P values were calculated using a two-sided t-test. *P<0.05, **P<0.01 vs. DMSO group.
After incubating HEK293 cell lysates with complex 1a followed by heating to set temperatures, VHL and PHD2 levels in the soluble fraction were quantitated by Western blotting.

[3] = system: HIF-2a; experiment: Effect on HIF-2a level and activity; format: cell-based
[4] = target: T2, VHL-HIF-1α interaction (Homo sapiens, UniProt P40337); experiment: Co-immunoprecipitation of hydroxy-HIF-1α with VHL in HEK293 cells; format: cell-based; conditions: HEK293 cells, 0.3, 1, 3, 6 and 9 μM for 2 h
T2 construct: endogenous in cells; host or cells: HEK293
Description: HEK293 cells were treated with vehicle DMSO (1% for 2 h), 1a (0.3, 1, 3, 6 and 9 μM for 2 h), VH298 (100 μM for 2 h), MG132 (20 μM for 3 h), or FG-4592 (100 μM for 2 h) before lysis. Cell lysates were collected and incubated with VHL antibody overnight at 4° C. The proteins were immunoprecipitated using agarose beads. The levels of hydroxy-HIF-1α co-precipitated with VHL were detected using a hydroxy-HIF-1α antibody, and then visualized using ECL Western Blotting Detection Reagent (GE Healthcare). (B) Cellular thermal shift assays to monitor cellular target engagement of VHL and HIF-1α. HEK293 cell lysates were treated with 1a (3 μM) at room temperature for 30 min and then heated at different temperature ranging from 48° C. to 68° C. for 5 min. The protein samples were collected and detected by Western blotting using either VHL or PHD2 antibodies. (C) Fluorescence-based protein thermal shift assay of VBC in the presence or absence of VH298 (100 μM) and complex 1a (100 μM). (D) ITC titration of complex 1a (300 μM) into recombinant VHL protein (30 μM). ITC experiments were carried in a MicroCal PEAQ-ITC Isothermal Titration Calorimeter (Malvern Panalytical). […] Data are expressed as means±SD (n=3 independent experiments for figures a and b, samples for figures c and e), P values were calculated using a two-sided t-test. *P<0.05, **P<0.01 vs. DMSO group. […]

T1 sequence (P40337 whole entry): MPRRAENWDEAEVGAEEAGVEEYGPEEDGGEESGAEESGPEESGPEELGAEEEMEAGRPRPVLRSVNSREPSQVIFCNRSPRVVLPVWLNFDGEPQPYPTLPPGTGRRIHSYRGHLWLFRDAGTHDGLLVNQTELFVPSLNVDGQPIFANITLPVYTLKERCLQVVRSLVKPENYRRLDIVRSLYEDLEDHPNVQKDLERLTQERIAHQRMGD
T1 sequence (Q15370 whole entry partner): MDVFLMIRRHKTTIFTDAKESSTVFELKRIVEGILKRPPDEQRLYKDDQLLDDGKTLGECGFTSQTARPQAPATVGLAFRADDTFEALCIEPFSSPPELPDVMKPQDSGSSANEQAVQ
T1 sequence (Q15369 whole entry partner): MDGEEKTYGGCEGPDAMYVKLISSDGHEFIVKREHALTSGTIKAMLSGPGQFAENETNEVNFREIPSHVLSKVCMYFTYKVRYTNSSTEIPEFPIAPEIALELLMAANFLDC
T2 sequence (P40337 whole entry): as the sequence (P40337 whole entry) above
T2 sequence (Q15370 whole entry partner): as the sequence (Q15370 whole entry partner) above
T2 sequence (Q15369 whole entry partner): as the sequence (Q15369 whole entry partner) above

COc1cc[n+]2c3c1ccc1c(OC)cc[n+](c13)[Ir-3]213([c]2ccccc2-c2cccc[n+]21)[c]1ccccc1-c1cccc[n+]13.F[P-](F)(F)(F)(F)F [1a]
HRE-driven luciferase activity compared to positive control P1 (and parent complex 1) [1]: about twice as potent as both the parent complex 1 as well as the positive control compound P1
HRE-driven luciferase activity, second round of screening ([1]; complexes 1a-1n, ranking and comparison in words): highest activation of HRE-drive luciferase activity
Dose-response of HRE-driven luciferase activity ([1]; indicated concentrations): dose-dependent activation of HRE-driven luciferase activity
ΔG (ITC) [2]: -8.14 kcal/mol
ΔH (ITC) [2]: -7.85 kcal/mol
−TΔS (ITC) [2]: -0.29 kcal/mol
Kd ([2]; 300 μM complex titrated into 30 μM VBC, 25° C.): 1080 ± 200 nM
Level and activity of HIF-2a [3]: no effect on the level and activity of HIF-2a
Amount of HIF-1α-OH co-precipitating with VHL [4]: reduced the amount of HIF-1α-OH co-precipitating with VHL in a dose-dependent manner
